In US20220233512A1, “INHIBITING AN IMMUNE RESPONSE MEDIATED BY ONE OR MORE OF TLR2, RAGE, CCR5, CXCR4 AND CD4” (priority 2020, published 2022):

System: human astrocyte TLR2 receptors
Assay: Release of pro-inflammatory cytokines from primary human astrocytes
Type: cell-based
Method: A primary astrocyte culture was prepared according to the provider (Lonza). The adherent astrocytes were trypsinized by 0.25% trypsin-EDTA, then collected and sub-cultured in 12-well plate (1.2 ml/well). When the cells were 80-85% confluent, cells were treated in an incubator under 5% CO2 with 100 fM, 10 pM or 1 nM Compound C0105 immediately followed by the addition of Ab42 ([…]), LPS (1 mg/ml), LTA-SA (1 mg/ml) and PGN-SA (10 mg/ml); i.e., simultaneously adding the insulting ligand and Compound C0105 to the cells. Vehicle groups were treated with 0.1% DMSO only. Incubation continued for 24 hours post addition. Culture medium was used as the blank (non-treat) and the levels of cytokines, TNF-a, IL-6 and IL-1b in 200 ml of culture medium were determined. Each well was sampled once.
Plates were washed 3 times with ice-cold 50 mM Tris HCl (pH 7.4) and incubated at 30° C. with 200 ml medium derived from the above-mentioned conditions. […] Plates were washed twice with 200 ml ice-cold Tris HCl, pH 7.4 and the residual FITC signals were determined by multimode plate reader, DTX880 (Beckman).
A primary astrocyte culture was prepared according to the provider (Lonza). […] Culture medium was used as the blank (non-treat) and the levels of cytokines, TNF-a, IL-6 and IL-1b in 200 ml of culture medium were determined. […]

## CN1CCC2(CC1)NCC(=O)N2Cc1ccccc1 [Compound C0105M]
Ab42 exposure
  Ab42-induced inflammatory cytokine production (in words): nearly abolishes this cytokine production
LTA-SA or PGN-SA insult, human astrocytes
  Release of the three pro-inflammatory cytokines (in words): substantially inhibited the release
